Several values for one entry are separate records, joined by “and”; a condition that tells them apart may be missing. Equal values may be shown once.
How the values were obtained:
BoNT/A LC [1] = biological target: T1, BoNT/A LC (Clostridium botulinum, UniProt P0DPI0); settings: cited from earlier work
[2] = biological target: BoNT/A LC metalloprotease (Clostridium botulinum, UniProt P0DPI0); assay: biochemical
anthrax lethal factor = anthrax lethal factor (Bacillus anthracis, UniProt P15917); assay type: biochemical
BoNT/A holotoxin = BoNT/A holotoxin (Clostridium botulinum, UniProt P0DPI1); assay type: cell-based
BoNT/A LC [3] = biological target: T1, BoNT/A LC; assay: biochemical; assay type: binding
[4] = tested on: chick spinal motor neurons

Sequence of BoNT/A LC metalloprotease (P0DPI0 2-448 limits assumed): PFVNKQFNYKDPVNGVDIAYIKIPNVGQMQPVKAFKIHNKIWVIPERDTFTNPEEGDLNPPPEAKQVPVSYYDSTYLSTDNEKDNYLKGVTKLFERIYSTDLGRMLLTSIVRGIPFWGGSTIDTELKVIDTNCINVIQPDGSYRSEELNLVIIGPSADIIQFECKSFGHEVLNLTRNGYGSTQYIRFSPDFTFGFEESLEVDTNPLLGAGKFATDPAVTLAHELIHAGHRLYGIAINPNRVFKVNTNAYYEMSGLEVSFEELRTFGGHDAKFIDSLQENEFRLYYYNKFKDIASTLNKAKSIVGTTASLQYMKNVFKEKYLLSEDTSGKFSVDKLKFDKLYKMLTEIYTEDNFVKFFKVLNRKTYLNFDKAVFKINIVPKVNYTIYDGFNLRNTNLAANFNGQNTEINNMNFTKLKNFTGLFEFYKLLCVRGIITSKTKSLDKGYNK
T1 sequence (P0DPI0 2-448 limits assumed): as above
Sequence of anthrax lethal factor (P15917 34-809 limits assumed): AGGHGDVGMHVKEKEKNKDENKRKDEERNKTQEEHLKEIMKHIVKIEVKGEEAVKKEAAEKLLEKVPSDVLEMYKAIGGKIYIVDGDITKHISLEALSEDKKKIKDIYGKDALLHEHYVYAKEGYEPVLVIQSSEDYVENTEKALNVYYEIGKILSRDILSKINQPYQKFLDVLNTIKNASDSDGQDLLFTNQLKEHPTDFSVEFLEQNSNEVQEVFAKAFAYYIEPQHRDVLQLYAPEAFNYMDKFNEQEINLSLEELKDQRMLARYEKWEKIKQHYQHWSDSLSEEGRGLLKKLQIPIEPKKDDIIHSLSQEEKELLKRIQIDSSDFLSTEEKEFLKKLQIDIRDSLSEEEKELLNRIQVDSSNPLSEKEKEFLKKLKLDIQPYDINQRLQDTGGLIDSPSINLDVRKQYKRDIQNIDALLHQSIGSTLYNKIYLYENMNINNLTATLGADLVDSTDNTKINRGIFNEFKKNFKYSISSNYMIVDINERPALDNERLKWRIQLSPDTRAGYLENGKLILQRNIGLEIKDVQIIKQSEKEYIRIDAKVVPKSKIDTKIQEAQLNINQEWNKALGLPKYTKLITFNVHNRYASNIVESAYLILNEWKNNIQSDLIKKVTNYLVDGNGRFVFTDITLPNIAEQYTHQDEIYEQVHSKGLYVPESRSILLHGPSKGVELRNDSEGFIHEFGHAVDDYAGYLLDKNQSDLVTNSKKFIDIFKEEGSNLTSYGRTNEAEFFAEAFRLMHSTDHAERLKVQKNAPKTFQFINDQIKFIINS
Sequence of BoNT/A holotoxin (P0DPI1 2-448 limits assumed): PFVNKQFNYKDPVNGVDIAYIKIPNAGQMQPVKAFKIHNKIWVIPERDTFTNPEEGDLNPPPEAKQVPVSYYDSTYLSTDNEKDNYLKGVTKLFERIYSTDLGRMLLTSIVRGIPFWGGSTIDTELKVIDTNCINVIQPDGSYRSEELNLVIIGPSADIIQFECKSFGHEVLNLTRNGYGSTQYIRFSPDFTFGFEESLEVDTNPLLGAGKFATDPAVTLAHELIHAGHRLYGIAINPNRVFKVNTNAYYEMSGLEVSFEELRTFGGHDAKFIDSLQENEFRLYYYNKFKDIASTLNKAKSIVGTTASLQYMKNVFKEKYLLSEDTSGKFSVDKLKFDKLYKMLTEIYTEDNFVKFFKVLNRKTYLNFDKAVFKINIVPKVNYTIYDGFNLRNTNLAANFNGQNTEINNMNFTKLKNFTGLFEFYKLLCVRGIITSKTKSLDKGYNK

Compound | % Inhibition of BoNT/A LC metalloprotease activity [2] | inhibition of protease activity of anthrax lethal factor (anthrax lethal factor) | further results
CRATKML |  |  | inhibitor potency in words (BoNT/A LC [1]): potent inhibitor
CCOC(=O)[C@H](CCc1ccccc1)N[C@@H](C)C(=O)N1CCC[C@H]1C(=O)O [enalapril] |  |  | inhibition of BoNT/A LC by known protease inhibitors (BoNT/A LC [1]): inhibited by mM concentrations
CCN(CC)CCCNc1cc(C)nc2c1ccc1c2ccc2c(NCCCN(CC)CC)cc(C)nc21 [NSC 328398] |  |  | inhibition at 10 µM ([2]; at 10 μM): 45%
C(=C\c1ccc2[nH]c(C3=NCCN3)cc2c1)/c1ccc(Oc2ccc(C3=NCCN3)cc2)cc1 [NSC 352341] | 40% |  | 
N=C(N)c1ccc(/C=C/c2cc3cc(C(=N)N)ccc3[nH]2)cc1 [NSC 317884] | 47% | inhibit the protease activity of anthrax lethal factor | 
N=C(N)c1ccc(/C=C/c2cc3ccc(C(=N)N)cc3[nH]2)cc1 [NSC 317886] | 43% | inhibit the protease activity of anthrax lethal factor | 
C(/C=C/c1cc2cc(C3=NCCN3)ccc2o1)=C\c1cc2cc(C3=NCCN3)ccc2o1 [NSC 308571] | 52% | inhibit the protease activity of anthrax lethal factor | 
C(=C\c1cc2ccc(C3=NCCN3)cc2o1)/c1cc2cc(C3=NCCN3)ccc2[nH]1 [NSC 294204] | 38% | inhibit the protease activity of anthrax lethal factor | 
C(=C\c1cc2ccc(C3=NCCN3)cc2[nH]1)/c1ccc(Oc2ccc(C3=NCCN3)cc2)cc1 [NSC 330690] | 53% |  | 
N=C(N)c1ccc(Oc2ccc(-c3cc4ccc(C(=N)N)cc4[nH]3)cc2)cc1 [NSC 240898] | 61% | inhibit the protease activity of anthrax lethal factor | inhibition of SNAP-25 cleavage (BoNT/A holotoxin): robust dose-dependent inhibition; ΔH (BoNT/A LC [3]): −3.04 and −3.04 ± 0.20 kcal mol^−1; ΔS (BoNT/A LC [3]): 14 and 14.0 cal mol^−1 K^−1; Kd (BoNT/A LC [3]; Kd): ~4.6 µM and 4.6 µM; Ka (BoNT/A LC [3]; pH 7.4): 218000 ± 45000 M⁻¹; N (number of binding sites, stoichiometry) (BoNT/A LC [3]; pH 7.4): 0.83±0.04; morphological signs of damage (tubulin, actin, DNA staining) [4]: little or no morphological signs of damage; concentration tolerated by cells without substantial cytotoxic effects ([4]; chick): about 40 μM
N=C(N)c1ccc2oc(/C=C/c3cc4cc(C(=N)N)ccc4s3)cc2c1 [NSC 266472] | 57% |  | 
NCCCC[C@H](N[C@@H](CCc1ccccc1)C(=O)O)C(=O)N1CCC[C@H]1C(=O)O [lysinopril] |  |  | inhibition of BoNT/A LC by known protease inhibitors (BoNT/A LC [1]): inhibited by mM concentrations
c1cc2cc(-c3ccc(-c4cc5ccc(C6=NCCN6)cc5[nH]4)cc3)[nH]c2cc1C1=NCCN1 [NSC 317881] | 45% | inhibit the protease activity of anthrax lethal factor | 
N=C(N)c1ccc2[nH]c(/C=C/c3cc4ccc(C(=N)N)cc4o3)cc2c1 [NSC 294203] | 46% | inhibit the protease activity of anthrax lethal factor | 
N=C(N)c1ccc2oc(/C=C/C=C/c3cc4cc(C(=N)N)ccc4o3)cc2c1 [NSC 300511] | 37% | inhibit the protease activity of anthrax lethal factor | 
C[C@H](CS)C(=O)N1CCC[C@H]1C(=O)O [captopril] |  |  | inhibition of BoNT/A LC by known protease inhibitors (BoNT/A LC [1]): inhibited by mM concentrations
N=C(N)N/N=C/c1ccc(-c2cc3ccc(/C=N/NC(=N)N)cc3s2)cc1 [NSC 341909] | 68% | inhibit the protease activity of anthrax lethal factor | concentration at which highly cytotoxic ([4]; chick): 1000 to 5000 nM
C(=C\c1cc2ccc(C3=NCCN3)cc2o1)/c1cc2ccc(C3=NCCN3)cc2o1 [NSC 294494] | 45% |  | 
C(=C\c1cc2cc(C3=NCCN3)ccc2s1)/c1ccc(C2=NCCN2)cc1 [NSC 317883] | 41% |  | 
C1=NC(c2ccc3cc(-c4c(-c5ccc(C6=NCCN6)cc5)[nH]c5cc(C6=NCCN6)ccc45)[nH]c3c2)NC1 (stereo not shown) [NSC 341911] | 37% | inhibit the protease activity of anthrax lethal factor | 
C(=C\c1cc2cc(C3=NCCN3)ccc2o1)/c1cc2cc(C3=NCCN3)ccc2o1 [NSC 278999] | 53% |  | 
C(=C\c1cc2cc(C3=NCCN3)ccc2o1)/c1cc2cc(C3=NCCN3)ccc2[nH]1 [NSC 290108] | 51% | inhibit the protease activity of anthrax lethal factor | 
C(=C\c1cc2ccc(C3=NCCN3)cc2[nH]1)/c1ccc2cc(C3=NCCN3)[nH]c2c1 [NSC 341907] | 60% | inhibit the protease activity of anthrax lethal factor | 
c1cc2cc(-c3cc4ccc(C5=NCCN5)cc4[nH]3)[nH]c2cc1C1=NCCN1 [NSC 330688] | 43% |  | 
N=C(N)c1ccc2[nH]c(/C=C/c3cc4cc(C(=N)N)ccc4o3)cc2c1 [NSC 290107] | 52% | inhibit the protease activity of anthrax lethal factor | 
N=C(N)c1ccc2cc(/C=C/c3cc4ccc(C(=N)N)cc4o3)[nH]c2c1 [NSC 294200] | 48% | inhibit the protease activity of anthrax lethal factor | 
N=C(N)c1ccc2oc(/C=C/C=C/C=C/c3cc4cc(C(=N)N)ccc4o3)cc2c1 [NSC 308574] | 63% | inhibit the protease activity of anthrax lethal factor | concentration at which highly cytotoxic ([4]; chick): 1000 to 5000 nM
C(=C/c1cc2cc(C3=NCCN3)ccc2o1)/c1cc2cc(C3=NCCN3)ccc2o1 [NSC 607617] | 36% |  | 
C(=C\c1cc2ccc(C3=NCCN3)cc2[nH]1)/c1cc2ccc(C3=NCCN3)cc2[nH]1 [NSC 317880] | 35% | inhibit the protease activity of anthrax lethal factor | 
